{"source": "patent US9359344B2", "about": "“Biaryl heterocycle substituted oxazolidinone antibacterial agents” (Xuanzhu Pharma Co., Ltd., priority 2011, dated 2016)", "key": {"Enterococcus faecium": {"tested_on": "Enterococcus faecium", "experiment": "In vitro antibacterial activity, standard agar dilution method, Enterococcus faecium", "format": "cell-based", "conditions": "clinical strains", "excerpt": "(§1) Strains for test: methicillin-resistant Staphylococcus aureus (MRSA), methicillin-sensitive Staphylococcus aureus (MSSA), methicillin-resistant Staphylococcus epidermidis (MRSE), methicillin-sensitive Staphylococcus […] (MSSE), Enterococcus faecium, Enterococcus faecalis, streptococcus pneumoniae. Obtained from: Qianfoshan Hospital, First People's Hospital of Yunnan Province, Renji Hospital of Shanghai, People's Hospital of Jilin Province, Southwest Hospital.\n(§2) Compounds 1, 3, 4, 6, 8, 11 of the present invention, prepared according to the process in each of the examples.\n(§3) Control pharmaceutical: linezolid.\n(§4) standard agar dilution method, reference was made to National Committee for Clinical Laboratory Standards. 2006. Methods for Dilution Antimicrobial Susceptibility Tests for Bacteria That Grow Aerobically, Approved Standard—Seventh Edition M7-A7."}, "[1]": {"tested_on": "methicillin-sensitive Staphylococcus aureus (MSSE)", "experiment": "In vitro antibacterial activity, standard agar dilution method, MSSE", "format": "cell-based, Staphylococcus epidermidis", "conditions": "clinical strains", "excerpt": "as §1, §2, §3, §4"}, "[2]": {"tested_on": "methicillin-resistant Staphylococcus epidermidis (MRSE)", "experiment": "In vitro antibacterial activity, standard agar dilution method, MRSE", "format": "cell-based", "conditions": "clinical strains", "excerpt": "as §1, §2, §3, §4"}, "[3]": {"tested_on": "methicillin-resistant Staphylococcus aureus (MRSA)", "experiment": "In vitro antibacterial activity, standard agar dilution method, MRSA", "format": "cell-based", "conditions": "clinical strains", "excerpt": "as §1, §2, §3, §4"}, "Enterococcus faecalis": {"tested_on": "Enterococcus faecalis", "experiment": "In vitro antibacterial activity, standard agar dilution method, Enterococcus faecalis", "format": "cell-based", "conditions": "clinical strains", "excerpt": "as §1, §2, §3, §4"}, "streptococcus pneumoniae": {"tested_on": "streptococcus pneumoniae", "experiment": "In vitro antibacterial activity, standard agar dilution method, Streptococcus pneumoniae", "format": "cell-based", "conditions": "clinical strains", "excerpt": "as §1, §2, §3, §4"}, "[4]": {"tested_on": "methicillin-sensitive Staphylococcus aureus (MSSA)", "experiment": "In vitro antibacterial activity, standard agar dilution method, MSSA", "format": "cell-based", "conditions": "clinical strains", "excerpt": "as §1, §2, §3, §4"}, "[5]": {"experiment": "In vivo pharmacokinetics test on rat, I.V (intravenous push)", "conditions": "male SD rat, 0.75 mg/kg, plasma, Compound 3 itself detected", "procedure": "(§5) Compounds 2, 3, 5, 7, 9, prepared by the processes in the examples, dissolved in physiological saline.\n(§6) Administration is performed as described in the table below, fasting without water deprivation for 16 hours before administration, providing food 4 hours after the administration.\nI.V representing administration by intravenous push\n(§7) I.V: blood collection was carried out according to the time points in the table below. At each time point about 100 μl whole blood was collected into a heparin sodium anticoagulation tube, centrifuged at 4° C. in a low temperature high speed centrifuge at 8000 rpm for 6 minutes. Plasma was separated and stored frozen in a freezer at −80° C.\n(§8) Compound 5, 7, 9: 20 μl plasma was each taken and added into 100 μl of Torezolid (TR-700) solution in methanol at a concentration of 50 ng/ml, mixed under vortex for 5 minutes, centrifuged at 12000 rpm for 5 minutes; 100 μl of supernatant was taken and added into 100 μl water, mixed under vortex for 2 minutes, and analyzed by using LC-MS/MS.\n(§9) Compound 2: 20 μl plasma was taken and added into 100 μl of Radezolid solution in methanol at a concentration of 50 ng/ml, mixed under vortex for 3 minutes, centrifuged at 12000 rpm for 5 minutes; 100 μl of supernatant was taken and added into 100 μl water, mixed under vortex for 2 minutes, and analyzed by using LC-MS/MS.\n(§10) Compound 3: 20 μl plasma was taken and added into 800 μl of KBP-3957 methyl tert-butyl ether solution at a concentration of 10 ng/ml, mixed under vortex for 10 minutes, centrifuged at 12000 rpm for 5 minutes; 400 μl of supernatant was taken and added into a 96-well plate, purged to dryness by nitrogen, 200 μl of methanol:water (7:3) solution was added, mixed under vortex for 10 minutes, and analyzed by using LC-MS/MS.\n(§11) Compound 2 is the prodrug of compound 1. Compound 5 is the prodrug of compound 4. Compound 7 is the prodrug of compound 6. Compound 9 is the prodrug of compound 8. Thus, PK data of active compounds, i.e. compounds 1, 4, 6, 8, were detected after administration, respectively."}, "[6]": {"tested_on": "methicillin-sensitive (MSSE)", "experiment": "In vitro antibacterial activity, standard agar dilution method, MSSE", "format": "cell-based, Staphylococcus epidermidis", "conditions": "clinical strains", "excerpt": "as §1, §2, §3, §4"}, "[7]": {"experiment": "In vivo pharmacokinetics test on rat, P.O (lavage)", "conditions": "plasma, po, male SD rat, Compound 3 itself detected", "procedure": "as §5, §6\nP.O representing administration by lavage\nas §7, §8, §9, §10, §11\nCalculation Formula Absolute bioavailability F %=[AUC]INF(PO)*Dose(IV)/[AUC]INF(IV)*Dose(PO)"}}}
{"molecule": "Cn1nnc(Nc2ccc(-c3ccc(N4C[C@H](CO)OC4=O)cc3F)cn2)n1", "note": "[Compound 1, (R)-3-(3-fluoro-4-(6-((2-methyl-2H-tetrazol-5-yl)amino)pyridin-3-yl)phenyl)-5-(hydroxylmethyl)oxazolidin-2-one]", "values": [{"measurement": "antibacterial activity Enterococcus faecium", "setting": "Enterococcus faecium", "result": 1, "unit": "µg/mL"}, {"measurement": "antibacterial activity MSSE", "setting": "[1]", "result": 0.5, "unit": "µg/mL"}, {"measurement": "antibacterial activity MRSE", "setting": "[2]", "result": 0.5, "unit": "µg/mL"}, {"measurement": "antibacterial activity MRSA", "setting": "[3]", "result": 1, "unit": "µg/mL"}, {"measurement": "antibacterial activity Enterococcus faecalis", "setting": "Enterococcus faecalis", "result": 1, "unit": "µg/mL"}, {"measurement": "antibacterial activity Streptococcus pneumoniae", "setting": "streptococcus pneumoniae", "result": 0.5, "unit": "µg/mL"}, {"measurement": "antibacterial activity MSSA", "setting": "[4]", "result": 1, "unit": "µg/mL"}]}
{"molecule": "CC(=O)NC[C@H]1CN(c2ccc(-c3ccc(Nc4nnn(C)n4)nc3)c(F)c2)C(=O)O1", "note": "[Compound 3, (S)-N-((3-(3-fluoro-4-(6-((2-methyl-2H-tetrazol-5-yl)amino)pyridin-3-yl)phenyl)-2-oxooxazolidin-5-yl)methyl)acetamide]", "values": [{"measurement": "antibacterial activity Enterococcus faecium", "setting": "Enterococcus faecium", "result": 0.25, "unit": "µg/mL"}, {"measurement": "AUC(0-inf)", "setting": "[5]", "result": 11600, "unit": "ng·h/mL"}, {"measurement": "clearance", "setting": "[5]", "result": 1.17, "unit": "mL/min/kg"}, {"measurement": "half-life", "setting": "[5]", "result": 5.29, "unit": "h"}, {"measurement": "Vd", "setting": "[5]; read-out: Vss", "result": 0.37, "unit": "L/kg"}, {"measurement": "antibacterial activity MSSE", "setting": "[6]", "result": 0.25, "unit": "µg/mL"}, {"measurement": "antibacterial activity MRSE", "setting": "[2]", "result": 0.25, "unit": "µg/mL"}, {"measurement": "bioavailability", "setting": "[7]; P.O 1 mg/kg vs I.V 0.75 mg/kg, read-out: F % (absolute bioavailability)", "result": 45.5, "unit": "%"}, {"measurement": "AUC(0-inf)", "setting": "[7]; P.O, 1 mg/kg", "result": 7030, "unit": "ng·h/mL"}, {"measurement": "Cmax", "setting": "[7]; P.O, 1 mg/kg", "result": 614, "unit": "ng/mL"}, {"measurement": "Tmax", "setting": "[7]; P.O, 1 mg/kg", "result": 4, "unit": "h"}, {"measurement": "half-life", "setting": "[7]; P.O, 1 mg/kg", "result": 5.55, "unit": "h"}, {"measurement": "antibacterial activity MRSA", "setting": "[3]", "result": 1, "unit": "µg/mL"}, {"measurement": "antibacterial activity Enterococcus faecalis", "setting": "Enterococcus faecalis", "result": 0.25, "unit": "µg/mL"}, {"measurement": "antibacterial activity Streptococcus pneumoniae", "setting": "streptococcus pneumoniae", "result": 0.25, "unit": "µg/mL"}, {"measurement": "antibacterial activity MSSA", "setting": "[4]", "result": 0.5, "unit": "µg/mL"}]}
{"molecule": "Cn1nnnc1Nc1ccc(-c2ccc(N3C[C@H](CO)OC3=O)cc2F)cn1", "note": "[Compound 4, (R)-3-(3-fluoro-4-(6-((1-methyl-1H-tetrazol-5-yl)amino)pyridin-3-yl)phenyl)-5-(hydroxylmethyl)oxazolidin-2-one]", "values": [{"measurement": "antibacterial activity Enterococcus faecium", "setting": "Enterococcus faecium", "result": 0.25, "unit": "µg/mL"}, {"measurement": "antibacterial activity MSSE", "setting": "[1]", "result": 0.125, "unit": "µg/mL"}, {"measurement": "antibacterial activity MRSE", "setting": "[2]", "result": 0.125, "unit": "µg/mL"}, {"measurement": "antibacterial activity MRSA", "setting": "[3]", "result": 0.25, "unit": "µg/mL"}, {"measurement": "antibacterial activity Enterococcus faecalis", "setting": "Enterococcus faecalis", "result": 0.25, "unit": "µg/mL"}, {"measurement": "antibacterial activity Streptococcus pneumoniae", "setting": "streptococcus pneumoniae", "result": 1, "unit": "µg/mL"}, {"measurement": "antibacterial activity MSSA", "setting": "[4]", "result": 0.25, "unit": "µg/mL"}]}
{"molecule": "CN(c1ccc(-c2ccc(N3C[C@H](CO)OC3=O)cc2F)cn1)c1nnnn1C", "note": "[Compound 6, (R)-3-(3-fluoro-4-(6-(methyl(1-methyl-1H-tetrazol-5-yl)amino)pyridin-3-yl)phenyl)-5-(hydroxylmethyl)oxazolidin-2-one]", "values": [{"measurement": "antibacterial activity Enterococcus faecium", "setting": "Enterococcus faecium", "result": 1, "unit": "µg/mL"}, {"measurement": "antibacterial activity MSSE", "setting": "[1]", "result": 0.5, "unit": "µg/mL"}, {"measurement": "antibacterial activity MRSE", "setting": "[2]", "result": 0.5, "unit": "µg/mL"}, {"measurement": "antibacterial activity MRSA", "setting": "[3]", "result": 0.5, "unit": "µg/mL"}, {"measurement": "antibacterial activity Enterococcus faecalis", "setting": "Enterococcus faecalis", "result": 1, "unit": "µg/mL"}, {"measurement": "antibacterial activity Streptococcus pneumoniae", "setting": "streptococcus pneumoniae", "result": 0.5, "unit": "µg/mL"}, {"measurement": "antibacterial activity MSSA", "setting": "[4]", "result": 0.5, "unit": "µg/mL"}]}
{"molecule": "CN(c1ccc(-c2ccc(N3C[C@H](CO)OC3=O)cc2F)cn1)c1nnn(C)n1", "note": "[Compound 8, (R)-3-(3-fluoro-4-(6-(methyl(2-methyl-2H-tetrazol-5-yl)amino)pyridin-3-yl)phenyl)-5-(hydroxylmethyl)oxazolidin-2-one]", "values": [{"measurement": "antibacterial activity Enterococcus faecium", "setting": "Enterococcus faecium", "result": 1, "unit": "µg/mL"}, {"measurement": "antibacterial activity MSSE", "setting": "[1]", "result": 0.5, "unit": "µg/mL"}, {"measurement": "antibacterial activity MRSE", "setting": "[2]", "result": 0.5, "unit": "µg/mL"}, {"measurement": "antibacterial activity MRSA", "setting": "[3]", "result": 1, "unit": "µg/mL"}, {"measurement": "antibacterial activity Enterococcus faecalis", "setting": "Enterococcus faecalis", "result": 1, "unit": "µg/mL"}, {"measurement": "antibacterial activity Streptococcus pneumoniae", "setting": "streptococcus pneumoniae", "result": 0.5, "unit": "µg/mL"}, {"measurement": "antibacterial activity MSSA", "setting": "[4]", "result": 1, "unit": "µg/mL"}]}
{"molecule": "Cn1cc(Nc2ccc(-c3ccc(N4C[C@H](CO)OC4=O)cc3F)cn2)nn1", "note": "[Compound 11, (R)-3-(3-fluoro-4-(6-((1-methyl-1H-1,2,3-triazol-4-yl)amino)pyridin-3-yl)phenyl)-5-(hydroxylmethyl)oxazolidin-2-one]", "values": [{"measurement": "antibacterial activity Enterococcus faecium", "setting": "Enterococcus faecium", "result": 2, "unit": "µg/mL"}, {"measurement": "antibacterial activity MSSE", "setting": "[1]", "result": 0.5, "unit": "µg/mL"}, {"measurement": "antibacterial activity MRSE", "setting": "[2]", "result": 1, "unit": "µg/mL"}, {"measurement": "antibacterial activity MRSA", "setting": "[3]", "result": 1, "unit": "µg/mL"}, {"measurement": "antibacterial activity Enterococcus faecalis", "setting": "Enterococcus faecalis", "result": 2, "unit": "µg/mL"}, {"measurement": "antibacterial activity Streptococcus pneumoniae", "setting": "streptococcus pneumoniae", "result": 1, "unit": "µg/mL"}, {"measurement": "antibacterial activity MSSA", "setting": "[4]", "result": 1, "unit": "µg/mL"}]}
{"molecule": "CC(=O)NC[C@H]1CN(c2ccc(N3CCOCC3)c(F)c2)C(=O)O1", "note": "[linezolid, Linezolid, reference compound]", "values": [{"measurement": "antibacterial activity Enterococcus faecium", "setting": "Enterococcus faecium", "result": 4, "unit": "µg/mL"}, {"measurement": "antibacterial activity MSSE", "setting": "[1]", "result": 2, "unit": "µg/mL"}, {"measurement": "antibacterial activity MRSE", "setting": "[2]", "result": 2, "unit": "µg/mL"}, {"measurement": "antibacterial activity MRSA", "setting": "[3]", "result": 4, "unit": "µg/mL"}, {"measurement": "antibacterial activity Enterococcus faecalis", "setting": "Enterococcus faecalis", "result": 4, "unit": "µg/mL"}, {"measurement": "antibacterial activity Streptococcus pneumoniae", "setting": "streptococcus pneumoniae", "result": 2, "unit": "µg/mL"}, {"measurement": "antibacterial activity MSSA", "setting": "[4]", "result": 2, "unit": "µg/mL"}]}
